The values below come from paper PMC4821887, “Identification of chemicals that mimic transcriptional changes associated with autism, brain aging and neurodegeneration” (Nature Communications, 2016).

In data set [1] the test system is cortical neurons. Briefly: Soma morphology (proportion of cells with altered soma morphology) in live-cell imaging. The data set is classed as cell-based, mouse. Conditions: for Soma swelling / aberrant cell morphology: 2 h treatment, vincristine 500 µM in Supplementary Fig. 10c.
Data set [2] has as its system mitochondrial superoxide in cortical neurons. Briefly: Mitochondrial superoxide detection (MitoSOX Red live-cell imaging). Conditions: for Mitochondrial superoxide (O2−) production: 2 h treatment, MitoSOX, vincristine 500 µM in Supplementary Fig. 10b. The data set is classed as cell-based, mouse.
Another data set deals with humans. The settings on record: cited from earlier work.
Data set [3] has as its system mouse cortical neuron-enriched cultures. Briefly: RNA-seq transcriptional screen with hierarchical clustering and cluster membership. Conditions: for Chemical cluster assigned by gene expression: 24 h at non-toxic concentration, hierarchical clustering of 5,121 variably expressed genes. The data set is classed as cell-based. On the procedure:
(§1) Cultures were treated with the non-cytotoxic dose of each chemical, by exchanging half of the original medium with chemicals at 2 × concentration in prewarmed feeding medium, on DIV 7 for 24 h in 12-well plates at a density of 5 × 10^5 cells per well. RNA was isolated using RNeasy plus mini kit (Cat. #74134, Qiagen). RNA yield and quality were determined using a Nanodrop 1000 Spectrophotometer (Thermo Scientific). Samples were further assessed for quality using either an Agilent Bioanalyzer 2100 or TapeStation 2200 to obtain a RIN. RIN values exceeding 7 were used for sequencing. RNA samples were used to generate and barcode complementary DNA libraries using the TruSeq RNA Library Preparation Kit at the UNC High Throughput Sequencing Facility. Pools of 24 multiplexed samples were sequenced per lane on an Illumina HiSeq 2500 using 50-bp paired-end reads.
(§2) RNA-seq reads were filtered using TagDust and aligned to the reference mouse genome (mm9) with TopHat using default parameters. Reads aligning to ribosomal RNA genes were removed. Transcript abundance was estimated by computing Reads per kilobase per million mapped reads (RPKM) using RefSeq gene models aggregated by gene symbol. For differential expression analyses, raw counts over RefSeq exons were used, and then were compared across samples using DESeq[62].
RPKMs for all RefSeq genes and all samples were filtered such that a given gene had >90% of samples with RPKM >0 and gene length exceeded 500 bp. RPKMs were then log10-transformed, quantile-normalized, median-centred, and the effects due to culture or sequencing batch were removed using a mixed model analysis of variance. This batch correction step was performed on individual experiments rather than chemical–vehicle ratios to reduce the effects due to variations in culture composition as well as batch-to-batch variations at the level of sequencing. Genes were then median-centred again, and filtered such that their s.d. exceeded 0.1. Chemical replicates were then combined using the median. Classes of chemicals were then discovered in two ways. First, we performed hierarchical clustering using average linkage and Pearson correlation distance measures. The boundaries of the discovered classes from clustering were set by computing pairwise Spearman correlations for all samples. A given cluster had to have at least three members with the minimum pairwise Spearman correlation coefficient exceeding 0.2, though cluster members often exceeded a correlation of 0.6 (Supplementary Fig. 5c,d). Seven chemical clusters were discovered, however one was removed due to failing to have a positive silhouette width, a metric of cluster robustness. These definitions enabled the three positive control topoisomerase inhibitors to form a cohesive group of chemicals with known structural and functional similarity (cluster 5). None of the culture or sequencing batches contributed to the formation of any one of the final six clusters (Supplementary Fig. 4).

In the next data set the test system is rats. Conditions: lowest dose tested; cited from earlier work.
For data set [4], the system named is cortical neurons. Also on record: method as in PMID 20881019. Conditions: cited from earlier work.
The next data set concerns mouse cortical cultures. In words: RNA-seq differential expression (DESeq) against matched vehicle. The data set is classed as cell-based. The settings on record: 24 h. On the procedure:
Figure 4 Cluster 2 chemicals alter expression of a common set of genes. […] RNA-seq was performed in quadruplicate after treating cortical cultures with fenamidone (10 μM) or pyraclostrobin (0.1 μM) for 24 h (n=3 biological replicates) and compared with matched vehicle controls using DESeq to detect differentially expressed genes, listed in Supplementary Data 4.
as §1, with “[…].” for “RNA yield and quality were determined using a Nanodrop 1000 Spectrophotometer (Thermo Scientific).”
as §2

For data set [5] the following is noted: cited from earlier work.
In the next data set the test system is microtubules. Conditions: cited from earlier work.
Data set [6] has as its system mouse cortical neuron cultures.
The test system of a further data set is cortical neuron cultures. More on the design: method as in PMID 25404338. Conditions: cited from earlier work.
The subject of a further data set is purified tubulin. Briefly: Tubulin polymerization assay (cell-free, BK011P). The settings on record: 37 °C, fluorescence over 60 min, equimolar doses. It counts as biochemical.
[7] abbreviates: pretreatment 18 h, two concentrations, fenamidone 10 μM, 2 h.

The structures appear in SMILES notation. “Also recorded” adds a separate entry of the source. Structures can show the parent of a compound that is named as a salt.

On to `C[S+]([O-])CCCCN=C=S` (racemic) [sulforaphane, DL-sulforophane], for which, in the data set with cortical neurons [1] (setting [7]), the “Effect of pretreatment on fenamidone-induced soma swelling / aberrant morphology” value is recorded as “attenuated”. Besides, the “Effect of pretreatment on fenamidone-induced O2− production” value in [2] (setting [7]) is “attenuated”. Besides, in the data set on humans, the Autism symptoms entry is given as “substantially reduces autism symptoms”. Also, the “Effect of pretreatment on fenamidone-induced transcriptional changes (RNA-seq)” value in data set [3] (pretreatment 10 μM, 18 h, fenamidone 10 μM, 24 h) is “attenuated”.
On to `CO/C=C(/C(=O)OC)c1ccccc1COc1cccc(C(F)(F)F)n1` [Picoxystrobin], for which, in the data set on rats, the “Acute neurotoxicity (motor activity)” value is recorded as “caused acute neurotoxicity (reduced motor activity) at the lowest dose tested”.
In the case of `CC1(C)C(C=C(Cl)Cl)C1C(=O)OC(C#N)c1ccc(F)c(Oc2ccccc2)c1` (stereo not drawn) [cyfluthrin], the “Calcium influx in cortical neurons” value in the data set on cortical neurons [4] is recorded as “stimulate sustained calcium influx”. For the same molecule, the “Chemical cluster assigned by gene expression” value (from here on “Chemical cluster assigned”) in data set [3] is on record as “cluster 1”.
For `CC1(C)C(C(=O)OC(C#N)c2cccc(Oc3ccccc3)c2)C1(C)C` (stereo not drawn) [fenpropathrin], the “Calcium influx in cortical neurons” value in the data set with cortical neurons [4] is “stimulate sustained calcium influx”. Moreover, the “Chemical cluster assigned” value in data set [3] is “cluster 1”.
With `COC(=O)N(OC)c1ccccc1COc1ccn(-c2ccc(Cl)cc2)n1` [pyraclostrobin], in the data set with mouse cortical cultures (0.1 μM, vs vehicle, DESeq), the “log2FoldChange, gene Acta2” value is 3.944; the “log2FoldChange, gene Gpnmb” value was determined as 3.288; the “log2FoldChange, gene Hspg2” value is 3.427; the “log2FoldChange, gene Tagln” value was found to be 3.548. In the data set on mouse cortical cultures (0.1 μM, vs vehicle, DESeq), the “log2FoldChange, gene Thbs1” value turned out to be 3.263. Moreover, the “Differentially expressed genes (DESeq) compared between the two fungicides” value in the data set on mouse cortical cultures (fenamidone 10 μM or pyraclostrobin 0.1 μM) is “up- and downregulate a largely overlapping set of genes”. Besides, the “Neurotoxicity in a set of assays used by regulatory agencies” value in [5] is “No evidence of neurotoxicity”. Also, the “Chemical cluster assigned” value in [3] is “cluster 2”.
Turning to `C=C(C)[C@H]1Cc2c(ccc3c2O[C@@H]2COc4cc(OC)c(OC)cc4[C@@H]2C3=O)O1` [rotenone], the Effect on microtubules result with microtubules is recorded as “destabilizes microtubules”. Moreover, in data set [6], the “Non-cytotoxic concentration identified with live/dead assay” value is 0.01 µM. Besides, in [3], the “Chemical cluster assigned” value is “cluster 2”.
`CC[C@@]1(O)C(=O)OCc2c1cc1n(c2=O)Cc2cc3c(CN(C)C)c(O)ccc3nc2-1` [topotecan, Topotecan hydrochloride, reference compound]: the Spontaneous synaptic activity entry in the data set with cortical neuron cultures is “reducing spontaneous synaptic activity”. The “Chemical cluster assigned” value in data set [3] is listed as “Cluster 5”.
Turning to `CC[C@]1(O)C[C@H]2CN(CCc3c([nH]c4ccccc34)[C@@](C(=O)OC)(c3cc4c(cc3OC)N(C=O)[C@H]3[C@@](O)(C(=O)OC)[C@H](OC(C)=O)[C@]5(CC)C=CCN6CC[C@]43[C@@H]65)C2)C1` [vincristine, vincristine sulfate salt], the entries for the “Soma swelling / aberrant cell morphology” value with cortical neurons [1] and with cortical neurons [1] (listed as Vincristine) were “phenocopied” and “altered cell morphology; also recorded: dose-dependent”, respectively. Besides, the “Mitochondrial superoxide (O2−) production” value in data set [2] is on record as “phenocopied”; in data set [2] (listed as Vincristine) it was “induced; also recorded: dose-dependent”. The “Effect on tubulin polymerization” value with purified tubulin is reported as “inhibited”.
